Assay: method code SF-HPLC, from DOI: 10.1021/jm4016729, PMID: 24422550
Conditions: pH 7.4

| logD | SMILES |
| --- | --- |
| 1.5 | Cc1nc(C2=COC2)c(C(=O)NC2C3CC4CC2C(O)(C4)C3)s1 (configuration not stated) |
| 2.4 | O=C(NC1C2CC3CC1CC(O)(C3)C2)c1sc(C2CCCO2)nc1C1CC1 (configuration not stated) |
